System: C. albicans 10231
Experiment: Skin conditioner impact on antimicrobial efficacy
Assay type: cell-based, Candida albicans
Conditions: skin conditioner added to prototype composition
Text: FIG. 6 is a bar graph showing the effect on the antimicrobial efficacy (average log reduction of C. albicans 10231) for three prototype antimicrobial compositions sharing all the same ingredients but differing in the amount of added PEG-45 palm kernel glycerides (ranging from 0 to 1.0%) in comparison to a commercial antimicrobial soap (ECOLAB Equi-Soft™ soap).

PEG-45 palm kernel glycerides was tested. Which “impact on the efficacy” value did it give?
Its value is “negative impact”.
